Molecules are shown by their SMILES.

The target of one assay is T1, acetylcholine muscarinic M1 receptor (Homo sapiens, UniProt P11229).
T1 construct: expressed in transfected cells; host or cells: CHOnfat cells (CHO cells with an NFAT reporter) expressing hM1, kept under Geneticin selection
T1 sequence (P11229 1-460): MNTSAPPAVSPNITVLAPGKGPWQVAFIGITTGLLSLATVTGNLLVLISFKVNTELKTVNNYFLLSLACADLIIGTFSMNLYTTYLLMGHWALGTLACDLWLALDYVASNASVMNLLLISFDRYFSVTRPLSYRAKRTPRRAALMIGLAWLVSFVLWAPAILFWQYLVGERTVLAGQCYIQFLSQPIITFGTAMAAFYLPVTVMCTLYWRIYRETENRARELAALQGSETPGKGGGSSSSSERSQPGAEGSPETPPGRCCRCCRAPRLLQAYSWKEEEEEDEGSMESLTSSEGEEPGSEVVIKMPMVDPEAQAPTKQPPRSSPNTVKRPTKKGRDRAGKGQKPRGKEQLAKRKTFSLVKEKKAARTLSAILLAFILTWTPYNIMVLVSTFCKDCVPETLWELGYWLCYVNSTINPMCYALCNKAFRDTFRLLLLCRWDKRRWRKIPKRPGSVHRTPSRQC
The assay is described as follows: muscarinic FLIPR assay: intracellular calcium in CHOnfat/hM1 cells, potentiation of EC20 acetylcholine. The assay is classed as cell-based. The following applies: Table 1; CHOnfat/hM1 cells, FLIPR, EC20 acetylcholine (3 nM final); read-out: M1 Pot. The method, boiled down: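 CHOnfat cells stably expressing human M1, Fluo-4AM-loaded, in HBSS with 20 mM HEPES, 2.5 mM probenecid, 1% BSA. Compounds preincubated 4 min (printed "4 mM") before an EC20 acetylcholine challenge (3 nM final). FLIPR intracellular Ca²⁺ signal compared with 3 nM acetylcholine alone to detect potentiation.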
In the case of `CC1(O)CCN(Cc2cc3c(c4ccccc24)CN(C2CCCCC2O)C3=O)CC1` (stereo not shown) [Example 37, 2-(2-hydroxycyclohexyl)-5-[(4-hydroxy-4-methylpiperidin-1-yl)methyl]-1,2-dihydro-3H-benzo[e]isoindol-3-one], the EC50 is more than 1.1 µM.
Still for that read-out and setting: in the case of `N#CC1(c2ccccc2Cl)CCN(Cc2cc3c(c4ccccc24)CN([C@H]2CCCC[C@@H]2O)C3=O)CC1` [Example 59, 4-(2-chlorophenyl)-1-({2-[(1S,2S)-2-hydroxycyclohexyl]-3-oxo-2,3-dihydro-1H-benzo[e]isoindol-5-yl}methyl)piperidine-4-carbonitrile] it was 0.046 µM; in that of `N#CC1(c2ccccn2)CCN(Cc2cc3c(c4ccccc24)CN([C@@H]2CCCC[C@@H]2O)C3=O)CC1` [Example 47, 1-({2-[(1R,2S)-2-hydroxycyclohexyl]-3-oxo-2,3-dihydro-1H-benzo[e]isoindol-5-yl}methyl)-4-pyridin-2-ylpiperidine-4-carbonitrile], 0.147 µM; in that of `COc1ccc(N2CCN(Cc3cc4c(c5ccccc35)CN([C@H]3CCCC[C@@H]3O)C4=O)C(C)C2)cc1` (stereo partly drawn) [Example 70, 2-[(1S,2S)-2-hydroxycyclohexyl] 5-{[4-(4-methoxyphenyl)-2-methylpiperazin-1-yl]methyl}-1,2-dihydro-3H-benzo[e]isoindol-3-one], 0.15 µM.
With `Cn1cc(N2CCN(Cc3cc4c(c5ccccc35)CN(c3ccccc3F)C4=O)CC2)cn1` [Example 66, 2-(2-fluorophenyl)-5-{[4-(1-methyl-1H-pyrazol-4-yl)piperazin-1-yl]methyl}-1,2-dihydro-3H-benzo[e]isoindol-3-one], the EC50 turned out to be 0.273 µM.
As for `N#CC1(c2cccnn2)CCN(Cc2cc3c(c4ccccc24)CN([C@H]2CCCC[C@@H]2O)C3=O)CC1` [Example 52, 1-({2-[(1S,2S)-2-hydroxycyclohexyl]-3-oxo-2,3-dihydro-1H-benzo[e]isoindol-5-yl}methyl)-4-(pyridazin-3-yl)piperidine-4-carbonitrile], the EC50 was 0.027 µM.
The same measure, in the same setting: the value for `CC1c2c(cc(CN3CCC(C#N)(c4ccccn4)CC3)c3ccccc23)C(=O)N1[C@H]1CCCC[C@@H]1O` (single isomer, unassigned) [Example 44] was 0.0096 µM; that for `O=C1c2cc(CN3CCC(F)(F)CC3)c3ccccc3c2CN1C1CCCCC1O` (stereo not shown) [Example 25, 5-[(4,4-difluoropiperidin-1-yl)methyl]-2-(2-hydroxycyclohexyl)-1,2-dihydro-3H-benzo[e]isoindol-3-one] was 0.012 µM; that for `Cn1cc(N2CCN(Cc3cc4c(c5ccccc35)CN([C@@H]3CCCC[C@H]3O)C4=O)CC2)cn1` [Example 81, 2-[(1R,2R)-2-hydroxycyclohexyl]-5-{[4-(1-methyl-1H-pyrazol-4-yl)piperazin-1-yl]methyl}-1,2-dihydro-3H-benzo[e]isoindol-3-one] was 0.496 µM.
Turning to `O=C1c2cc(CN3CCN(c4ccc5ncsc5c4)CC3)c3ccccc3c2CN1c1ccccc1F` [Example 85, 5-{[4-(1,3-benzothiazol-6-yl)piperazin-1-yl]methyl}-2-(2-fluorophenyl)-1,2-dihydro-3H-benzo[e]isoindol-3-one], the EC50 was 1.14 µM.
For the molecule `O=C1c2cc(CN3CCCCC3)c3ccccc3c2CN1[C@H]1CCCC[C@@H]1O` [Example 11], the EC50 was 4.9 µM.
Take `O=C1c2cc(CN3CCCC(F)C3)c3ccccc3c2CN1C1CCCCC1O` (stereo not shown) [Example 17, 5-[(3-fluoropiperidin-1-yl)methyl]-2-(2-hydroxycyclohexyl)-1,2-dihydro-3H-benzo[e]isoindol-3-one]: the EC50 is 0.32 µM.
Still for that read-out and setting: in the case of `Cc1ccnc(C2(C#N)CCN(Cc3cc4c(c5ccccc35)CN([C@H]3CCCC[C@@H]3O)C4=O)CC2)c1` [Example 64, 1-({2-[(1S,2S)-2-hydroxycyclohexyl]-3-oxo-2,3-dihydro-1H-benzo[e]isoindol-5-yl}methyl)-4-(4-methylpyridin-2-yl)piperidine-4-carbonitrile] it was 0.0097 µM.
In the case of `O=C1c2cc(CN3CCN(c4ccccn4)CC3)c3ccccc3c2CN1c1ccccc1F` [Example 75, 2-(2-fluorophenyl)-5-{[4-(pyridin-2-yl)piperazin-1-yl]methyl}-1,2-dihydro-3H-benzo[e]isoindol-3-one], the EC50 was determined as 0.078 µM.
For the molecule `Cc1ccnc(C2(C#N)CCN(Cc3cc4c(c5ccccc35)CN(c3ccccc3F)C4=O)CC2)c1` [Example 63, 1-{[2-(2-fluorophenyl)-3-oxo-2,3-dihydro-1H-benzo[e]isoindol-5-yl]methyl}-4-(4-methylpyridin-2-yl)piperidine-4-carbonitrile], the EC50 was 0.545 µM.

Staying with this assay, now noted: Table 2; CHOnfat/hM1 cells, FLIPR, EC20 acetylcholine (3 nM final); read-out: M1 Pot.
In the case of `CCCC#CC1(F)CCN(Cc2cc3c(c4ncccc24)CN([C@H]2CCCC[C@@H]2O)C3=O)CC1` [Example 125, 5-[(4-fluoro-4-pent-1-yn-1-ylpiperidin-1-yl)methyl]-8-[(1S,2S)-2-hydroxycyclohexyl]-8,9-dihydro-7H-pyrrolo[3,4-h]quinolin-7-one], the EC50 worked out at 0.13 µM.
As for `O=C1c2cc(CN3CCOCC3)c3cccnc3c2CN1C1CCCCC1O` (stereo not shown) [Example 99, 8-(2-hydroxycyclohexyl)-5-(morpholin-4-ylmethyl)-8,9-dihydro-7H-pyrrolo[3,4-h]quinolin-7-one], the EC50 amounted to 0.15 µM.
Turning to `COc1ccc(N2CCN(Cc3cc4c(c5ncccc35)CN(C3CCCCC3O)C4=O)CC2)cc1` (stereo not shown) [Example 168, 8-(2-hydroxycyclohexyl)-5-{[4-(4-methoxyphenyl)piperazin-1-yl]methyl}-8,9-dihydro-7H-pyrrolo[3,4-h]quinolin-7-one], the EC50 turned out to be 0.024 µM.
For the molecule `O=C1c2cc(CN3CCC(F)(F)C3)c3cccnc3c2CN1C1CCCCC1O` (stereo not shown) [Example 98, 5-[(3,3-difluoropyrrolidin-1-yl)methyl]-8-(2-hydroxycyclohexyl)-8,9-dihydro-7H-pyrrolo[3,4-h]quinolin-7-one], the EC50 worked out at 0.151 µM.
Turning to `CC1c2c(cc(CN3CCC(F)(C#N)CC3)c3cccnc23)C(=O)N1C1CCCCC1O` (single isomer, unassigned) [Example 119, 4-fluoro-1-{[8-(2-hydroxycyclohexyl)-9-methyl-7-oxo-8,9-dihydro-7H-pyrrolo[3,4-h]quinolin-5-yl]methyl}piperidine-4-carbonitrile], the EC50 was found to be 0.044 µM.
Regarding `CC1c2c(cc(CN3CCN(c4ccccn4)CC3)c3cccnc23)C(=O)N1C1CCCCC1O` (stereo not shown) [Example 166, 8-(2-hydroxycyclohexyl)-9-methyl-5-[(4-pyridin-2-ylpiperazin-1-yl)methyl]-8,9-dihydro-7H-pyrrolo[3,4-h]quinolin-7-one], the EC50 worked out at 0.58 µM.
Still for that read-out and setting: the value for `CC1c2c(cc(CN3CCC(F)(F)CC3)c3cccnc23)C(=O)N1[C@@H]1CCCC[C@@H]1O` (stereo partly drawn) [Example 104, 5-[(4,4-difluoropiperidin-1-yl)methyl]-8-[(1R,2S)-2-hydroxycyclohexyl]-9-methyl-8,9-dihydro-7H-pyrrolo[3,4-h]quinolin-7-one] was 0.015 µM; that for `CC1c2c(cc(CN3CCC(C#N)(c4ccccc4)CC3)c3cccnc23)C(=O)N1C1CCCCC1O` (stereo not shown) [Example 137, 1-{[8-(2-hydroxycyclohexyl)-9-methyl-7-oxo-8,9-dihydro-7H-pyrrolo[3,4-h]quinolin-5-yl]methyl}-4-phenylpiperidine-4-carbonitrile] was 0.48 µM; that for `CC1c2c(cc(CN3CCC(C#N)(c4ccccc4)CC3)c3cccnc23)C(=O)N1C1CCCCC1O` (stereo not shown) [Example 138, 1-{[8-(2-hydroxycyclohexyl)-9-methyl-7-oxo-8,9-dihydro-7H-pyrrolo[3,4-h]quinolin-5-yl]methyl}-4-phenylpiperidine-4-carbonitrile] was 0.069 µM.
In the case of `C#CC1(F)CCN(Cc2cc3c(c4ncccc24)CN(c2cccc(O)c2)C3=O)CC1` [Example 128, 5-[(4-ethynyl-4-fluoropiperidin-1-yl)methyl]-8-(3-hydroxyphenyl)-8,9-dihydro-7H-pyrrolo[3,4-h]quinolin-7-one], the EC50 is 0.843 µM.
In the case of `CC1c2c(cc(CN3CCC(c4ccncc4)CC3)c3cccnc23)C(=O)N1C1CCCCC1O` (stereo not shown) [Example 161, 8-(2-hydroxycyclohexyl)-9-methyl-5-[(4-pyridin-4-ylpiperidin-1-yl)methyl]-8,9-dihydro-7H-pyrrolo[3,4-h]quinolin-7-one], the EC50 turned out to be 0.65 µM.

Still in this assay, the particulars now being: Table 3; inflection point calculated from the FLIPR values; EC20 acetylcholine (3 nM final); read-out: IP Value.
As to `CC1c2c(cc(CN3CCC(C#N)(c4ccccn4)CC3)c3ccccc23)C(=O)N1[C@H]1CCCC[C@@H]1O` (stereo partly drawn) [Example 3, 1-({2-[(1S,2S)-2-Hydroxycyclohexyl]-1-methyl-3-oxo-2,3-dihydro-1H-benzo[e]isoindol-5-yl}methyl)-4-(pyridine-2-yl)piperidine-4-carbonitrile], the EC50 is 0.019 µM.
As for `CCc1cccc(C2(C#N)CCN(Cc3cc4c(c5ccccc35)CN([C@H]3CCCC[C@@H]3O)C4=O)CC2)n1` [Example 5, 4-(6-Ethylpyridin-2-yl)-1-({2-[(1S,2S)-hydroxycyclohexyl]-3-oxo-2,3-dihydro-1H-benzo[e]isoindol-5-yl}methyl)piperidine-4-carbonitrile], the EC50 is 0.055 µM.
